Experimental data published in US10730840B2, “Substituted tetrahydroisoquinoline ethylbenzamide anti-cancer agents” (Florida A&M University, priority 2017, dated 2020).

Assays:
[1] = test system: Ishikawa (endometrial) cancer cell line; assay: CellTiter-Glo antiproliferative activity, Ishikawa cell line; type: cell-based, human; conditions: 72 h exposure, in the presence of 10 nM estradiol; for IC50: Homo sapiens, Ishikawa, Table 1, read-out: IC50 Ishikawa
Description: Numerous substituted THIQs were systematically synthesized employing molecular design and structure activity relationship studies (Suresh et al., (2014) Lett. Drug Design & Discov. 11: 428-436; Gangapuram et al., (2014) J. Cancer Sci. Ther. 6: 161-169). The compounds' cytotoxic effects on MCF-7 (estrogen receptor positive breast cancer) cell lines, MDA-MB-231 (estrogen receptor negative breast cancer) cell lines and Ishikawa cell lines using CellTiter-Glo (CTG) luminescent cell viability essay were studied. The tests were done on different concentrations of the compounds ranging from 0.01 to 100,000 nM on 5000 MCF-7 cells/well, on 5000 MDA-MB-231 cells/well and on 5000 Ishikawa cells/well. Drug exposed cells were incubated at 37° C. for three days followed by CTG assay. Then IC50 values were generated from Graph Pad Prism 4. […]
(§1) The antiproliferative activities of substituted tetrahydroisoquinolines 2a-2m, 3a-3l and 4a-4f were evaluated according to the procedure reported previously (Crouch et al., (1993) J. Immunol. Methods 160: 81-88).
(§2) Human MCF-7 and MDA-MB-231 breast cancer cell lines were purchased from the NCI. The human Ishikawa endometrial cancer cell line was purchased from Sigma Aldrich. All three cell lines were cultured in phenol red-free RPMI-1640 (Hyclone) (500 mL) supplemented with L-glutamine-dipeptide (Hyclone) (5 mL), and 10% fetal bovine serum (Atlanta Biologicals) (50 mL).
(§3) The cell lines were cultured and treated with compounds under study including the standard TAM ranging from 0.01 nM to 100,000 nM concentration in the presence of 10 nM estradiol using the previous reported method (Suresh et al., (2014) Lett. Drug Des. Discov. 11: 428-436).
(§4) The amount of ATP is determined using a system based on luciferase and D-luciferin resulting in light generation.

[2] = test system: MCF-7 (ER positive breast cancer cell line); assay: CellTiter-Glo antiproliferative activity, MCF-7 cell line; type: cell-based, human; conditions: for IC50: Homo sapiens, MCF7, Table 1, read-out: IC50 MCF-7
Description: (§5) Numerous substituted THIQs were systematically synthesized employing molecular design and structure activity relationship studies (Suresh et al., (2014) Lett. Drug Design & Discov. 11: 428-436; Gangapuram et al., (2014) J. Cancer Sci. Ther. 6: 161-169). The compounds' cytotoxic effects on MCF-7 (estrogen receptor positive breast cancer) cell lines, MDA-MB-231 (estrogen receptor negative breast cancer) cell lines and Ishikawa cell lines using CellTiter-Glo (CTG) luminescent cell viability essay were studied. The tests were done on different concentrations of the compounds ranging from 0.01 to 100,000 nM on 5000 MCF-7 cells/well, on 5000 MDA-MB-231 cells/well and on 5000 Ishikawa cells/well. Drug exposed cells were incubated at 37° C. for three days followed by CTG assay. Then IC50 values were generated from Graph Pad Prism 4.
(§6) Chemistry: Several substituted tetrahydroisoquinolines 2d-2m, 3h, 3k, 3l, and 4a-4f were prepared according to three different procedures as shown in Schemes 1, 2 and 3 (FIGS. 2-4). […] The aminating agent 10 was prepared using a reported procedure (Tamura et al., (1972) J. Org. Chem. 40: 4133-4135). The amino salts of ring substituted 2-aminoisoquinolinium mesitylenesulfonates of general structure 11 used in the present study were prepared by the reaction of substituted isoquinolines and the aminating agent 10 as previously reported (Gangapuram et al., (2014) J. Cancer Sci. Ther. 6: 161-169). […] The aminating agent 13 was prepared using a reported procedure (Legault & Charette (2003) J. Org. Chem. 68: 7119-7122). The amino salts of ring substituted 2-aminoisoquinolinium compounds of general structure 14 were obtained with the reaction of the substituted isoquinolines and the aminating agent 13 in CH3CN heated at 50° C. for 24 hours. Without further purification, the salts were used to prepare the N-ylides by reaction with substituted acyl/sulfonyl chlorides. […] N-Oxidation of commercially available ring substituted THIQs followed by the reduction of the NO group using standard zinc/acetic acid led to the synthesis of N-amino THIQs.
as §1, §2, §3, §4

[3] = test system: MCF-7, MDA-MB-231, and Ishikawa cell lines; assay: Antiproliferative activity, summary statements over the three cell lines; type: cell-based, human; conditions: MCF-7, MDA-MB-231 and Ishikawa cell lines together
Description: as §5, §6, §1, §2, §3

[4] = test system: MDA-MB-231 (ER negative breast carcinoma cell line); assay: CellTiter-Glo antiproliferative activity, MDA-MB-231 cell line; type: cell-based, human; conditions: 72 h exposure, in the presence of 10 nM estradiol; for IC50: Homo sapiens, MDA-MB-231, Table 1
Description: as §5, §6, §1, §2, §3

microtubule network = conditions: Gangapuram et al. (2014); cited from earlier work
[5] = 72 h exposure, in the presence of 10 nM estradiol

| melting point [°C] | IC50 [1] [µg/mL] | IC50 [2, 5] [µg/mL] | IC50 [4] [µg/mL] | IC50 against Ishikawa cell line [1] [µg/mL] | IC50 against MCF-7 cell line [2, 5] [µg/mL] | IC50 against MDA-MB-231 cell line [4] [µg/mL] | SMILES | antiproliferative activity in words [3] | antiproliferative activity against MCF-7 cell line in words ([2]; based on IC50 value) | microtubule-destabilizing activity (microtubule network) |
| --- | --- | --- | --- | --- | --- | --- | --- | --- | --- | --- |
| 150 to 152 | 45.6 | > 48.6 | > 48.6 | – | – | – | CCc1ccc(C(=O)NN2CCc3cc(OC(=O)c4ccc(CC)cc4)ccc3C2C(=O)OC)cc1 (stereo not drawn) [Compound 4f, Methyl-2-(4-ethylbenzamido)-6-((4-ethylbenzoyl)oxy)-1,2,3,4-tetrahydroisoquinoline-1-carboxylate] | completely inactive | – | – |
| 162 to 163 | 15 | > 38.2 | > 38.2 | – | – | – | CCc1ccc(C(=O)NN2CCc3cc(OC)c(OC)cc3C2C(C)C)cc1 (stereo not drawn) [Compound 4c, 4-Ethyl-N-(1-isopropyl-6,7-dimethoxy-3,4-dihydroisoquinolin-2(1H)-yl)benzamide] | completely inactive | – | – |

The remaining lines, values behind:

| SMILES | melting point [°C] | IC50 [1] [µg/mL] | IC50 [2, 5] [µg/mL] | IC50 [4] [µg/mL] | IC50 against Ishikawa cell line [1] [µg/mL] | IC50 against MCF-7 cell line [2, 5] [µg/mL] | IC50 against MDA-MB-231 cell line [4] [µg/mL] | antiproliferative activity in words [3] | antiproliferative activity against MCF-7 cell line in words ([2]; based on IC50 value) | microtubule-destabilizing activity (microtubule network) |
| --- | --- | --- | --- | --- | --- | --- | --- | --- | --- | --- |
| CCc1ccc(C(=O)NN2CCc3ccc(O)cc3C2)cc1 [Compound 2b] | – | – | – | – | 0.08 | 0.2 | 0.13 | more active than the lead structure (1) | very active | potent microtubule-destabilizing agent |
| CCc1ccc(C(=O)Nc2cccc3c2CN(NC(=O)c2ccc(CC)cc2)CC3)cc1 [Compound 2j, N,N′-(3,4-dihydroisoquinoline-2,8(1H)-diyl)bis(4-ethylbenzamide)] | 113.2 to 116.4 | 2.74 | 9.35 | 9.71 | – | – | – | less active | – | – |
| COc1ccc(S(=O)(=O)NN2CCc3c(cccc3OS(=O)(=O)c3ccc(OC)cc3)C2)cc1 [Compound 3l, 2-(4-Methoxyphenylsulfonamido)-1,2,3,4-tetrahydroisoquinolin-5-yl-4-methoxybenzene-sulfonate] | 182 to 183 | > 50.5 | > 50.5 | > 50.5 | – | – | – | completely inactive | – | – |
| CCc1ccc(C(=O)Nc2cccc3c2CCN(NC(=O)c2ccc(CC)cc2)C3)cc1 [Compound 3c, N,N′-(3,4-Dihydroisoquinoline-2, 5(1H)-diyl)bis(4-ethylbenzamide)] | 216 to 218 | 9.45 | 4.59 | 6.1 | – | – | – | less active | – | – |
| CCc1ccc(C(=O)NN2CCc3c(cccc3NC(C)=O)C2)cc1 [Compound 3d, N-(5-Acetamido-3,4-dihydroisoquinolin-2(1H)-yl)-4-ethylbenzamide] | 295 to 297 | > 33.7 | > 33.7 | > 33.7 | – | – | – | completely inactive | – | – |
